From patent US7056940B2, “Insecticidal 3-(2,6-disubstituted phenyl)-5-[5-arylthien-2-yl]-1,2,4-triazoles” (Dow AgroSciences LLC, priority 2001, dated 2006)

Row | Compound | melting point
1 | Cc1sc(-c2ccc(OC(F)(F)F)cc2)cc1-c1nc(-c2c(F)cccc2Cl)nn1C [Example 4, 3-(2-Chloro-6-fluorophenyl)-5-[2-methyl-5-(4-trifluoromethoxyphenyl)thien-3-yl]-1-methyl-1H-1,2,4-triazole] | 153 to 155 °C
2 | Cc1c(-c2nc(-c3c(F)cccc3Cl)nn2C)csc1-c1ccc(OC(F)(F)C(F)C(F)(F)F)cc1 (centres unmarked) [Example 7, 3-(2-Chloro-6-fluorophenyl)-5-{5-[4-(1,1,2,3,3,3-hexafluoropropoxy)phenyl]-4-methylthien-3-yl}-1-methyl-1H-1,2,4-triazole] | 114 to 116 °C
